Measured values reported in patent publication US11155557B2, “Pyrazolopyrimidine compounds and methods of use thereof” (Genentech, Inc., priority 2016, dated 2021).
pIC50, pKi: −log10 of the molar value.

Key:
[1] = target: isolated recombinant JAK2 kinase domain (Homo sapiens (Human), UniProt O60674); assay: JAK2 enzyme assay (Caliper LabChip, Ki); conditions: read-out: JAK2 Ki
Procedure: JAK Enzyme Assays were Carried Out as Follows:
The activity of the isolated recombinant JAK1 and JAK2 kinase domain was measured by monitoring phosphorylation of a peptide derived from JAK3 ([sequence] fluorescently labeled on the N-terminus with 5-carboxyfluorescein) using the Caliper LabChip R technology (Caliper Life Sciences, Hopkinton, Mass.). […] After termination of the kinase reaction, the proportion of phosphorylated product was determined as a fraction of total peptide substrate using the Caliper LabChip R 3000 according to the manufacturer's specifications.

[2] = target: isolated recombinant JAK1 kinase domain (Homo sapiens (Human), UniProt P23458); assay: JAK1 enzyme assay (Caliper LabChip, Ki); format: biochemical
Sequence of isolated recombinant JAK1 kinase domain (P23458 875-1153): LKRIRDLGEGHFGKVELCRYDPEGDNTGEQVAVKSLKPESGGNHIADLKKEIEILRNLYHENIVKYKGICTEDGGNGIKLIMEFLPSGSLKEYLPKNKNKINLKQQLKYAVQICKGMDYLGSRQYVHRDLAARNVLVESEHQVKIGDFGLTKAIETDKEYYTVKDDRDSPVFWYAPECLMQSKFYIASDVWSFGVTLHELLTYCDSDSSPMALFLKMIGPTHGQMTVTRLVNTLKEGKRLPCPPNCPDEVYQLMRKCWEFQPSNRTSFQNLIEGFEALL
Procedure: The activity of the isolated recombinant JAK1 and JAK2 kinase domain was measured by monitoring phosphorylation of a peptide derived from JAK3 ([…] fluorescently labeled on the N-terminus with 5-carboxyfluorescein) using the Caliper LabChip R technology (Caliper Life Sciences, Hopkinton, Mass.).

[3] = system: JAK1-dependent STAT6 phosphorylation in BEAS-2B human bronchial epithelial cells; assay: JAK1 pathway assay: IL-13 stimulated STAT6 phosphorylation in BEAS-2B cells; format: cell-based; conditions: Homo sapiens, BEAS-2B, BEAS-2B cells, IL-13 stimulation; read-out: IL-13 p-STAT6 BEAS-2B IC50
Procedure, shortened: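 BEAS-2B bronchial epithelial cells plated one day before, run in complete growth medium. Phospho-STAT6 in lysates measured by MesoScale Discovery; EC50 reported.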

Sequence of isolated recombinant JAK2 kinase domain (O60674 849-1124): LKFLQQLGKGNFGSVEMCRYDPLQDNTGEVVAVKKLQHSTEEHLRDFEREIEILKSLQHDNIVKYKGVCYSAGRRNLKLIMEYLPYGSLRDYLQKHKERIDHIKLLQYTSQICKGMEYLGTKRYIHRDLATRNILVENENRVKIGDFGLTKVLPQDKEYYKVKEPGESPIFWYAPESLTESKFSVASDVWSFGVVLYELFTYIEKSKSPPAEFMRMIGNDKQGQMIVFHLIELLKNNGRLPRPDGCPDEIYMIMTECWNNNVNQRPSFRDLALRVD

SMILES | pKi [1] | pKi [2] | pIC50 [3]
CC1Sc2cc(-c3n[nH]cc3NC(=O)c3cnn4cccnc34)c(OC(F)F)cc2NC1=O (stereo not drawn) [Example 39, N-[3-[6-(difluoromethoxy)-2-methyl-3-oxo-4H-1,4-benzothiazin-7-yl]-1H-pyrazol-4-yl]pyrazolo[1,5-a]pyrimidine-3-carboxamide] | 10.30 | 10.22 | 7.15
O=C1COc2cc(-c3n[nH]cc3NC(=O)c3cnn4cccnc34)c(OC(F)F)cc2N1 [Example 40, N-[3-[6-(difluoromethoxy)-3-oxo-4H-1,4-benzoxazin-7-yl]-1H-pyrazol-4-yl]pyrazolo[1,5-a]pyrimidine-3-carboxamide] | 10.22 | 10.05 | 7.17
C[C@H]1COc2cc(-c3n[nH]cc3NC(=O)c3cnn4cccnc34)c(OC(F)F)cc2N1 [Example 42, N-[3-[(3S)-6-(difluoromethoxy)-3-methyl-3,4-dihydro-2H-1,4-benzoxazin-7-yl]-1H-pyrazol-4-yl]pyrazolo[1,5-a]pyrimidine-3-carboxamide] | 9.60 | 9.36 | 7.47
C[C@@H]1COc2cc(-c3n[nH]cc3NC(=O)c3cnn4cccnc34)c(OC(F)F)cc2N1 [Example 43, N-[3-[(3R)-6-(difluoromethoxy)-3-methyl-3,4-dihydro-2H-1,4-benzoxazin-7-yl]-1H-pyrazol-4-yl]pyrazolo[1,5-a]pyrimidine-3-carboxamide] | 9.77 | 9.60 | 7.92
O=C(Nc1cn(CC(=O)N2CCC(CN3CCOCC3)CC2)nc1-c1cc2c(cc1OC(F)F)NCCO2)c1cnn2cccnc12 [Example 44, N-[3-[6-(difluoromethoxy)-3,4-dihydro-2H-1,4-benzoxazin-7-yl]-1-[2-[4-(morpholinomethyl)-1-piperidyl]-2-oxo-ethyl]pyrazol-4-yl]pyrazolo[1,5-a]pyrimidine-3-carboxamide] | 9.29 | 9.47 | 7.35
C[C@H]1CNc2cc(OC(F)F)c(-c3nn(CC(=O)N4CCC(CN5CCOCC5)CC4)cc3NC(=O)c3cnn4cccnc34)cc2S1 [Example 45, N-[1-[2-[4-(morpholinomethyl)-1-piperidyl]-2-oxo-ethyl]-3-[(2S)-6-(difluoromethoxy)-2-methyl-3,4-dihydro-2H-1,4-benzothiazin-7-yl]pyrazol-4-yl]pyrazolo[1,5-a]pyrimidine-3-carboxamide] | 9.62 | 9.66 | 7.54
C[C@@H]1CNc2cc(OC(F)F)c(-c3nn(CC(=O)N4CCC(CN5CCOCC5)CC4)cc3NC(=O)c3cnn4cccnc34)cc2S1 [Example 46, N-[1-[2-[4-(morpholinomethyl)-1-piperidyl]-2-oxo-ethyl]-3-[(2R)-6-(difluoromethoxy)-2-methyl-3,4-dihydro-2H-1,4-benzothiazin-7-yl]pyrazol-4-yl]pyrazolo[1,5-a]pyrimidine-3-carboxamide] | 9.51 | 9.60 | 7.51
O=C(Nc1cn(CC(=O)N2CCC(N3CCOCC3)CC2)nc1-c1cc2c(cc1OC(F)F)NCCO2)c1cnn2cccnc12 [Example 47, N-[3-[6-(difluoromethoxy)-3,4-dihydro-2H-1,4-benzoxazin-7-yl]-1-[2-(4-morpholino-1-piperidyl)-2-oxo-ethyl]pyrazol-4-yl]pyrazolo[1,5-a]pyrimidine-3-carboxamide] | 9.35 | 9.51 | 6.97
O=C(Nc1cn(CC(=O)N2CCC(O)CC2)nc1-c1cc2c(cc1OC(F)F)NCCO2)c1cnn2cccnc12 [Example 48, N-[3-[6-(difluoromethoxy)-3,4-dihydro-2H-1,4-benzoxazin-7-yl]-1-[2-(4-hydroxy-1-piperidyl)-2-oxo-ethyl]pyrazol-4-yl]pyrazolo[1,5-a]pyrimidine-3-carboxamide] | 9.29 | 9.52 | < 6.00
O=C(Nc1cn(CC(=O)N2CC=CCC2)nc1-c1cc2c(cc1OC(F)F)NCCO2)c1cnn2cccnc12 [Example 49, N-[3-[6-(difluoromethoxy)-3,4-dihydro-2H-1,4-benzoxazin-7-yl]-1-[2-(3,6-dihydro-2H-pyridin-1-yl)-2-oxo-ethyl]pyrazol-4-yl]pyrazolo[1,5-a]pyrimidine-3-carboxamide] | 9.54 | 9.64 | 7.72
O=C(Nc1cn(CC(=O)N2CC=CCC2)nc1-c1cc2c(cc1OC(F)F)NCCS2)c1cnn2cccnc12 [Example 50, N-[3-[6-(difluoromethoxy)-3,4-dihydro-2H-1,4-benzothiazin-7-yl]-1-[2-(3,6-dihydro-2H-pyridin-1-yl)-2-oxo-ethyl]pyrazol-4-yl]pyrazolo[1,5-a]pyrimidine-3-carboxamide] | 10.00 | 9.96 | 8.00
O=C(Nc1cn(CC(=O)N2CCCCC2)nc1-c1cc2c(cc1OC(F)F)NCCS2)c1cnn2cccnc12 [Example 51, N-[3-[6-(difluoromethoxy)-3,4-dihydro-2H-1,4-benzothiazin-7-yl]-1-[2-oxo-2-(1-piperidyl)ethyl]pyrazol-4-yl]pyrazolo[1,5-a]pyrimidine-3-carboxamide] | 10.00 | 9.89 | 7.96
O=C(Nc1cn(CC(=O)N2CCC(O)CC2)nc1-c1cc2c(cc1OC(F)F)NCCS2)c1cnn2cccnc12 [Example 52, N-[3-[6-(difluoromethoxy)-3,4-dihydro-2H-1,4-benzothiazin-7-yl]-1-[2-(4-hydroxy-1-piperidyl)-2-oxo-ethyl]pyrazol-4-yl]pyrazolo[1,5-a]pyrimidine-3-carboxamide] | 9.85 | 9.80 | 6.55
CCN1CCN(C(=O)Cn2cc(NC(=O)c3cnn4cccnc34)c(-c3cc4cn[nH]c4cc3OC(F)F)n2)CC1 [Example 53, N-[3-[6-(difluoromethoxy)-1H-indazol-5-yl]-1-[2-(4-ethylpiperazin-1-yl)-2-oxo-ethyl]pyrazol-4-yl]pyrazolo[1,5-a]pyrimidine-3-carboxamide] | 9.41 | 9.60 | 7.06
COc1cc2ccsc2cc1-c1nn(CC(=O)N2CCC(N3CCOCC3)CC2)cc1NC(=O)c1cnn2cccnc12 [Example 54, N-[3-(5-methoxybenzothiophen-6-yl)-1-[2-(4-morpholino-1-piperidyl)-2-oxo-ethyl]pyrazol-4-yl]pyrazolo[1,5-a]pyrimidine-3-carboxamide] | 8.68 | 9.04 | 7.34
N#Cc1cc2cc(OC(F)F)c(-c3nn(CC(=O)N4CCC(N5CCOCC5)CC4)cc3NC(=O)c3cnn4cccnc34)cc2s1 [Example 55, N-[3-[2-cyano-5-(difluoromethoxy)benzothiophen-6-yl]-1-[2-(4-morpholino-1-piperidyl)-2-oxo-ethyl]pyrazol-4-yl]pyrazolo[1,5-a]pyrimidine-3-carboxamide] | 9.39 | 9.39 | 7.70
NC(=O)c1cc2cc(OC(F)F)c(-c3nn(CC(=O)N4CCC(N5CCOCC5)CC4)cc3NC(=O)c3cnn4cccnc34)cc2s1 [Example 56, N-[3-[2-carbamoyl-5-(difluoromethoxy)benzothiophen-6-yl]-1-[2-(4-morpholino-1-piperidyl)-2-oxo-ethyl]pyrazol-4-yl]pyrazolo[1,5-a]pyrimidine-3-carboxamide] | 9.43 | 9.41 | < 6.48
O=C(Nc1cn(CC(=O)N2CCC(N3CCOCC3)CC2)nc1-c1cc2ccccc2cc1OC(F)F)c1cnn2cccnc12 [Example 57, N-[3-[3-(difluoromethoxy)-2-naphthyl]-1-[2-(4-morpholino-1-piperidyl)-2-oxo-ethyl]pyrazol-4-yl]pyrazolo[1,5-a]pyrimidine-3-carboxamide] | 9.06 | 9.25 | 7.77
O=C(Nc1cn(CC(=O)N2CCC(N3CCOCC3)CC2)nc1-c1cc2c(cc1OC(F)F)NCCS2)c1cnn2cccnc12 [Example 58, N-[3-[6-(difluoromethoxy)-3,4-dihydro-2H-1,4-benzothiazin-7-yl]-1-[2-(4-morpholino-1-piperidyl)-2-oxo-ethyl]pyrazol-4-yl]pyrazolo[1,5-a]pyrimidine-3-carboxamide] | 9.66 | 9.72 | 7.27
O=C(Nc1cn(CC(=O)N2CCC(CN3CCOCC3)CC2)nc1-c1cc2c(cc1OC(F)F)NCCS2)c1cnn2cccnc12 [Example 59, N-[3-[6-(difluoromethoxy)-3,4-dihydro-2H-1,4-benzothiazin-7-yl]-1-[2-[4-(morpholinomethyl)-1-piperidyl]-2-oxo-ethyl]pyrazol-4-yl]pyrazolo[1,5-a]pyrimidine-3-carboxamide] | 9.64 | 9.66 | 7.60
N#Cc1cc2cc(OC(F)F)c(-c3nn(CC(=O)N4CCC(CN5CCOCC5)CC4)cc3NC(=O)c3cnn4cccnc34)cc2s1 [Example 60, N-[3-[2-cyano-5-(difluoromethoxy)benzothiophen-6-yl]-1-[2-[4-(morpholinomethyl)-1-piperidyl]-2-oxo-ethyl]pyrazol-4-yl]pyrazolo[1,5-a]pyrimidine-3-carboxamide] | 9.46 | 9.44 | 7.92
NC(=O)c1cc2cc(OC(F)F)c(-c3nn(CC(=O)N4CCC(CN5CCOCC5)CC4)cc3NC(=O)c3cnn4cccnc34)cc2s1 [Example 61, N-[3-[2-carbamoyl-5-(difluoromethoxy)benzothiophen-6-yl]-1-[2-[4-(morpholinomethyl)-1-piperidyl]-2-oxo-ethyl]pyrazol-4-yl]pyrazolo[1,5-a]pyrimidine-3-carboxamide] | 9.11 | 9.19 | < 6.48
